The results in this text go back to PubChem BioAssay AID624482 (The Scripps Research Institute Molecular Screening Center, 2012).

Active and inactive are the calls of the source.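 How the source made its calls: active means inhibition of the enzyme prolyl endopeptidase above 20%; inactive means inhibition at or below 20%.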

The target in this test is Prolyl endopeptidase (Mus musculus) (UniProt Q9QUR6). Description: prolyl endopeptidase enzyme blockade – biochemical, fluorescence, mouse, assay provider data, selectivity assay for PREPL inhibitor project (AID 624482). The settings on record: recombinant PEP, Z-Gly-Pro-AMC fluorescence; at 20 µM; stronger effect = higher value.
Prolyl endopeptidase (Mus musculus), sequence (Q9QUR6 whole entry, looked up): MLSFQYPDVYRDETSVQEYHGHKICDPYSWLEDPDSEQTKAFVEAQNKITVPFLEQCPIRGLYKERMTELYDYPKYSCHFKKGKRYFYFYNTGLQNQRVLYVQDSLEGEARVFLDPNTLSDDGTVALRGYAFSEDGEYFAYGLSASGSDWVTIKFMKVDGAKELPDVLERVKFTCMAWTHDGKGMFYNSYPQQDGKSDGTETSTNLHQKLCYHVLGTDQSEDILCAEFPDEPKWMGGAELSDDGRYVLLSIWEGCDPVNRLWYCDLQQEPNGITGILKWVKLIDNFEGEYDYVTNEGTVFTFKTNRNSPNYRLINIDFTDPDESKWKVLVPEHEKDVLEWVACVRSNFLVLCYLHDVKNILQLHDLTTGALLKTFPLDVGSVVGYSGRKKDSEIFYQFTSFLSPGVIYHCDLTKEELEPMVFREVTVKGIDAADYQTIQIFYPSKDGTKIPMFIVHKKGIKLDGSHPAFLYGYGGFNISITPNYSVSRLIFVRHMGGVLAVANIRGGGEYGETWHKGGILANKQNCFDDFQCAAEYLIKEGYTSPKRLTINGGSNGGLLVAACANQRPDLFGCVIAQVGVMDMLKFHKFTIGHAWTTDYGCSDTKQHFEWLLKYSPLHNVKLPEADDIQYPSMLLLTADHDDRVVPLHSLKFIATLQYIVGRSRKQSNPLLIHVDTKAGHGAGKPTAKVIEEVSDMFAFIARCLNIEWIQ
As a reminder, the inhibition is the change of the read-out against control, counted positive when it falls. As for `O=C(Nc1ccc2c(c1)OCCO2)c1cccc2nc3ccccc3nc12`, the inhibition is -26% (inactive).
The value for `COc1cc2nc(Nc3ccc(C)c(C)c3)nc(N)c2cc1OC` was 46%; that for `CCOc1ccc(CCNC(=O)c2ccc3c(=O)[nH]c4c(C(=O)NC(C)C)sc(=S)n4c3c2)cc1` was -29% (inactive).
As for `N#Cc1c2c(c(-c3ccccc3)[nH]c1=O)CCCC2`, the figure is -13% (inactive); as for `CC(C)Cc1[nH]c(=O)c(C#N)c2c1CCC2`, -17% (inactive).
